Experiments:
B16 (melanoma) = experiment: Autophagy induction in B16 (fluorescent microscopy, western blot of LC3-II); type: cell-based, mouse
SH-SY5Y (neuroblastoma) = experiment: Autophagy induction in SH-SY5Y; type: cell-based
Excerpt: (§1) The increased level of LC3-II, a marker of autophagosome was examined by Western blot and immunocytochemistry. The increase of autophagosomes and autolysosomes in HEK293 cells stably expressing mRFP-GFP-LC3, a dual-tag reporter of autophagy, was examined following humanin treatment. In addition, the signaling pathways activated by humanin using a phospho-antibody array in SH-SY5Y cells was investigated. […] Both activation and suppression of autophagy are involved in cancer pathogenesis and treatment, depending on the context.

[1] = tested on: HEK293 (normal embryonic kidney cells); experiment: Autophagy induction (LC3-II, mRFP-GFP-LC3) in HEK293; type: cell-based
Excerpt: as §1

Measured: autophagy

MAPRGFSCLLLLTSEIDLPVKRRA [HN, 24-amino acid mitochondrial derived peptide]
induces autophagy: all assays above
